According to patent US12145941B2, “Heterocyclic antiviral agents” (ENANTA PHARMACEUTICALS, INC., priority 2021, dated 2024):

These compounds were tested against SARS-CoV-2 3CL-protease (Severe acute respiratory syndrome coronavirus 2 (2019-nCoV) (SARS-CoV-2), UniProt P0DTD1) (assay: SARS-CoV-2 3C-like (3CL) protease fluorescence assay (FRET)). Conditions: recombinant SARS-CoV-2 3CL-protease 10 nM, 30 min preincubation at RT, TAMRA-SITSAVLQSGFRKMK-Dabcyl-OH substrate, run in duplicate.
Assay type: biochemical
Protocol: SARS-CoV-2 3C-like (3CL) protease fluorescence assay (FRET): Recombinant SARS-CoV-2 3CL-protease was expressed and purified. TAMRA-[…]-Dabcyl-OH peptide 3CLpro substrate was synthesized. Black, low volume, round-bottom, 384 well microplates were used. In a typical assay, 0.85 μL of test compound was dissolved in DMSO then incubated with SARS-CoV-2 3CL-protease (10 nM) in 10 μL assay buffer (50 mM HEPES [pH 7.5], 1 mM DTT, 0.01% BSA, 0.01% Triton-X 100) for 30 min at RT. Next, 10 μL of 3CL-protease substrate (40 μM) in assay buffer was added and the assays were monitored continuously for 1 h in an Envision multimode plate reader operating in fluorescence kinetics mode with excitation at 540 nm and emission at 580 nm at RT. No compound (DMSO only) and no enzyme controls were routinely included in each plate. All experiments were run in duplicate. Data Analysis: SARS-CoV-2 3CL-protease enzyme activity was measured as initial velocity of the linear phase (RFU/s) and normalized to controlled samples DMSO (100% activity) and no enzyme (0% activity) to determine percent residual activity at various concentrations of test compounds (0-10 μM). Data were fitted to normalized activity (variable slope) versus concentration fit in GraphPad Prism 7 to determine IC50.
Work on `CC(C)C[C@H](C(=O)N1C[C@]2(C[C@H]1C#N)C(=O)Nc1ccccc12)n1cccc(-c2ccc(F)cc2)c1=O` [Compound 25-b] yielded an IC50 greater than 1000 nM. Compound `CC(C)C[C@@H](C(=O)N1C[C@]2(C[C@H]1C#N)C(=O)Nc1ccccc12)N1Cc2cc(Br)ccc2C1=O` [Compound 9, (3R,5'S)-1′-((S)-2-(5-bromo-1-oxoisoindolin-2-yl)-4-methylpentanoyl) oxospiro[indoline-3,3′-pyrrolidine]-5′-carbonitrile] has an IC50 of less than 100 nM.

Same assay, conditions: recombinant SARS-CoV-2 3CL-protease 10 nM, 30 min preincubation at RT, TAMRA-[…]-Dabcyl-OH substrate, run in duplicate
Work on `C=C1c2ccccc2C(=O)N1[C@@H](CC(C)C)C(=O)N1C[C@]2(C[C@H]1C#N)C(=O)Nc1ccccc12` [Compound 22-c, (3R,5'S)-1′-((S)-4-methyl-2-(1-methylene-3-oxoisoindolin-2-yl)pentanoyl)-2-oxospiro[indoline-3,3′-pyrrolidine]-5′-carbonitrile] yielded an IC50 of less than 100 nM. For `CC(C)(F)C[C@@H](C(=O)N1C[C@]2(C[C@H]1C#N)C(=O)Nc1ccccc12)N1Cc2cccc(Cl)c2C1=O` [Compound 16], the IC50 was 100 to 1000 nM. Compound `CC(C)C[C@@H](C(=O)N1C[C@]2(C[C@H]1C#N)C(=O)Nc1ccccc12)N1Cc2c(cccc2C(F)(F)F)C1=O` [Compound 10] has an IC50 of less than 100 nM. Compound `COc1ccc2c(c1)CN([C@@H](CC(C)(C)C)C(=O)N1C[C@]3(C[C@H]1C#N)C(=O)Nc1ccccc13)C2=O` [Compound 17] has an IC50 of less than 100 nM. For `COc1cccc2c1CN([C@@H](CC(C)(C)C)C(=O)N1C[C@]3(C[C@H]1C#N)C(=O)Nc1ccccc13)C2=O` [Compound 19], the IC50 was less than 100 nM. In the case of `CC(C)(C)C[C@@H](C(=O)N1C[C@]2(C[C@H]1C#N)C(=O)Nc1ccccc12)N1C(=O)c2ccc(F)cc2C1(C)C` [Compound 23, (3R,5'S)-1′-((S)-2-(6-fluoro-1,1-dimethyl-3-oxoisoindolin-2-yl)-4,4-dimethylpentanoyl)-2-oxospiro[indoline-3,3′-pyrrolidine]-5′-carbonitrile], the IC50 is reported as 100 to 1000 nM. For `CC(C)C[C@@H](C(=O)N1C[C@]2(C[C@H]1C#N)C(=O)Nc1ccccc12)N1CCc2c(F)cccc2C1=O` [Compound 3], the IC50 was less than 100 nM. In the case of `CC(C)(C)C[C@@H](C(=O)N1C[C@]2(C[C@H]1C#N)C(=O)Nc1ccccc12)N1Cc2cc(Cl)ccc2C1=O` [Compound 12], the IC50 is reported as less than 100 nM. For `CC(C)C[C@@H](C(=O)N1C[C@]2(C[C@H]1C#N)C(=O)Nc1ccccc12)N1CCc2cc(F)ccc2C1=O` [Compound 4], the IC50 was less than 100 nM. With `CC(C)(F)C[C@@H](C(=O)N1C[C@]2(C[C@H]1C#N)C(=O)Nc1ccccc12)N1Cc2c(Cl)cccc2C1=O` [Compound 14] the IC50 was less than 100 nM. In the case of `CC(C)(C)C[C@@H](C(=O)N1C[C@]2(C[C@H]1C#N)C(=O)Nc1ccccc12)N1CCc2ccc(F)cc2C1=O` [Compound 7], the IC50 is reported as less than 100 nM. `CC(C)(C)C[C@@H](C(=O)N1C[C@]2(C[C@H]1C#N)C(=O)Nc1ccccc12)N1CCc2c(F)cccc2C1=O` [Compound 5] showed an IC50 of less than 100 nM. In the case of `CC(C)C[C@@H](C(=O)N1C[C@]2(C[C@H]1C#N)C(=O)Nc1ccccc12)N1C(=O)c2ccccc2[C@H]1C` [Compound 22-a, (3R,5'S)-1′-((S)-4-methyl-2-((R)-1-methyl-3-oxoisoindolin-2-yl)pentanoyl)-2-oxospiro[indoline-3,3′-pyrrolidine]-5′-carbonitrile], the IC50 is reported as less than 100 nM. `CC(C)(C)C[C@@H](C(=O)N1C[C@]2(C[C@H]1C#N)C(=O)Nc1ccccc12)N1Cc2c(cccc2C(F)(F)F)C1=O` [Compound 11] showed an IC50 of less than 100 nM. With `CC(C)(F)C[C@@H](C(=O)N1C[C@]2(C[C@H]1C#N)C(=O)Nc1ccccc12)N1Cc2cc(Cl)ccc2C1=O` [Compound 13] the IC50 was less than 100 nM. `CC(C)C[C@@H](C(=O)N1C[C@]2(C[C@H]1C#N)C(=O)Nc1ccccc12)N1C(=O)c2ccc(F)cc2C1(C)C` [Compound 24] gave an IC50 greater than 1000 nM. Compound `CC(C)C[C@@H](C(=O)N1C[C@]2(C[C@H]1C#N)C(=O)Nc1ccccc12)n1cccc(-c2ccncc2)c1=O` [Compound 26-a] has an IC50 of 100 to 1000 nM. In the case of `CC(C)(C)C[C@@H](C(=O)N1C[C@]2(C[C@H]1C#N)C(=O)Nc1ccccc12)N1CCc2cc(F)ccc2C1=O` [Compound 6], the IC50 is reported as less than 100 nM. In the case of `CC(C)C[C@@H](C(=O)N1C[C@]2(C[C@H]1C#N)C(=O)Nc1ccccc12)N1CCc2cccc(F)c2C1=O` [Compound 1, (3R,5'S)-1′-((S)-2-(8-fluoro-1-oxo-3,4-dihydroisoquinolin-2(1H)-yl)-4-methylpentanoyl)-2-oxospiro[indoline-3,3′-pyrrolidine]-5′-carbonitrile], the IC50 is reported as 100 to 1000 nM. `CC(C)C[C@H](C(=O)N1C[C@]2(C[C@H]1C#N)C(=O)Nc1ccccc12)n1cccc(-c2ccncc2)c1=O` [Compound 26-b] showed an IC50 greater than 1000 nM. `CC(C)C[C@@H](C(=O)N1C[C@]2(C[C@H]1C#N)C(=O)Nc1ccccc12)N1C(=O)c2ccccc2[C@@H]1C` [Compound 22-b, (3R,5'S)-1′-((S)-4-methyl-2-((S)-1-methyl-3-oxoisoindolin-2-yl)pentanoyl)-2-oxospiro[indoline-3,3′-pyrrolidine]-5′-carbonitrile] showed an IC50 of less than 100 nM. Work on `CC(C)(F)C[C@@H](C(=O)N1C[C@]2(C[C@H]1C#N)C(=O)Nc1ccccc12)N1Cc2ncc(Cl)cc2C1=O` [Compound 21] yielded an IC50 of less than 100 nM. With `CC(C)(C)C[C@@H](C(=O)N1C[C@]2(C[C@H]1C#N)C(=O)Nc1ccccc12)N1Cc2cccnc2C1=O` [Compound 20] the IC50 was 100 to 1000 nM. With `CC(C)C[C@@H](C(=O)N1C[C@]2(C[C@H]1C#N)C(=O)Nc1ccccc12)N1CCc2ccc(F)cc2C1=O` [Compound 2] the IC50 was less than 100 nM. `CC(C)(C)C[C@@H](C(=O)N1C[C@]2(C[C@H]1C#N)C(=O)Nc1ccccc12)N1CCc2cccc(F)c2C1=O` [Compound 8] showed an IC50 of 100 to 1000 nM. Work on `COc1ccc2c(c1)C(=O)N([C@@H](CC(C)(C)C)C(=O)N1C[C@]3(C[C@H]1C#N)C(=O)Nc1ccccc13)C2` [Compound 18] yielded an IC50 of less than 100 nM. `CC(C)(F)C[C@@H](C(=O)N1C[C@]2(C[C@H]1C#N)C(=O)Nc1ccccc12)N1Cc2ccc(Cl)cc2C1=O` [Compound 15] showed an IC50 of less than 100 nM.
